Test results from paper PMC3285688, “Active Site Mutations Change the Cleavage Specificity of Neprilysin” (PLoS ONE, 2012).

How the values were obtained:
[1] = test system: NEP and each of the studied mutants; assay: Inhibition of Glut-Ala-Ala-Phe-MNA hydrolysis by NEP inhibitors; format: biochemical, human
Protocol: Reactions of 400 µl contained 100 µM Glut-Ala-Ala-Phe-MNA, 1 µg of aminopeptidase and 15 to 100 ng of NEP or mutant NEP depending on their activity in 20 mM MES buffer, pH 6.5. Activity was monitored with a Spectra Max Gemini XS plate reader using an excitation wavelength of 340 nm and an emission wavelength of 425 nm.

NEP [2] = assay: Degradation of peptide substrates by NEP: extent and cleavage sites (HPLC, mass spectrometry); details: for Cleavage site (bond cleaved): NEP and mutants, 20 mM MES pH 6.5, 37°C
Protocol: Degradation of insulin B chain by wild-type NEP was analyzed by reverse-phase HPLC following the appearance of each product as a function of time, Figure 1 . Product peaks were collected and subsequently analyzed by mass spectrometry to determine their identities. […] Based on the order of appearance of each peak, it is likely that insulin B chain1–10, insulin B chain1–11, insulin B chain1–14 and its partner peak insulin B chain15–30, insulin B chain17–30, and insulin B chain24–30 are all products of primary cleavages. These products appear at the first time point when approximately 15% hydrolysis of insulin B chain had occurred (30 minutes). At 30% hydrolysis (90 min.), peaks corresponding to insulin B chain1–5 and insulin B chain17–24 are observed. Peaks for insulin B chain1–16 and insulin B chain15–23 become apparent at >30% insulin B chain hydrolysis. […] It is likely that these are transient products that are subsequently cleaved contributing to other product peaks (i.e. insulin B chain24–30).
To further study the effect of mutations on cleavage site specificity, time course assays were also performed for the hydrolysis of the physiological substrate Aß1–40. Like the analysis of insulin B chain, a time course assay was first done with NEP to identify cleavage products, Figure 3 and Table 6 . After 15% hydrolysis of Aß1–40 (150 min.) by NEP there were six discernable product peaks corresponding to Aß1–16, Aß1–17, Aß10–17, Aß20–28, Aß20–29, and Aß20–30. […]
Cleavage of physiological peptides was measured via reverse phase high performance liquid chromatography (HPLC) following incubation of the purified NEP or its mutants with 15 µM insulin B chain (Sigma Aldrich), 24 µM Aß1–40 (Anaspec), or 64 µM leu-ENK (Sigma) in 100 µL of 20 mM MES, pH 6.5, at 37°C. […] Peptides and hydrolysis products were detected at 214 nm and quantified by measuring peak areas. Peptides obtained from HPLC were analyzed on an Applied Biosystems 4800 MALDI TOF/TOF Proteomics Analyzer at the University of Kentucky Proteomics core. […]

NEP [3] = details: cited from earlier work
Text: Two other studies have identified NEP cleavage sites within Aß1–40 [25], [26].

O=C(O)CCNC(=O)[C@H](Cc1ccc(-c2ccccc2)cc1)NCP(=O)(O)O [CGS 24592]
Inhibition of Glut-Ala-Ala-Phe-MNA hydrolysis ([1]; inhibitor at 10 nM): completely inhibited

Tyr-Gly-Gly-Phe-Leu [leu-ENK, leucine^5-enkephalin, leucine5-enkephalin (Tyr-Gly-Gly-Phe-Leu), physiological substrate]
Cleavage site (bond cleaved) (NEP [2]): Gly-Phe bond

CC(C)C[C@H](NP(=O)(O)O[C@@H]1O[C@@H](C)[C@H](O)[C@@H](O)[C@H]1O)C(=O)N[C@@H](Cc1c[nH]c2ccccc12)C(=O)O [phosphoramidon]
Inhibition of Glut-Ala-Ala-Phe-MNA hydrolysis ([1]; inhibitor at 100 µM): completely inhibited

glutaryl-Ala-Ala-Phe-4-methoxy-2-naphthylamide [Glut-Ala-Ala-Phe-MNA, fluorogenic peptide substrate]
Cleavage site (bond cleaved) (NEP [2]): Ala-Phe peptide bond

Aß1–40: amyloid beta peptide 1–40, physiological substrate (Anaspec)
Cleavages of Aß1–40 detected by Leissring et al. (NEP [3]): Cleavages at K^28-G^29 and G^29-A^30
Cleavages of Aß1–40 detected in two other studies and the current study (NEP [3]): G^9-Y^10, F^19-F^20, and A^30-I^31
Additional unreported cleavage sites detected in Aß1–40 (NEP [2]): E^11-V^12, K^16-L^17, and L^17-V^18
